The target in one data set is T1, human NPY2R (Homo sapiens, UniProt P49146).
T1 sequence (P49146 1-381): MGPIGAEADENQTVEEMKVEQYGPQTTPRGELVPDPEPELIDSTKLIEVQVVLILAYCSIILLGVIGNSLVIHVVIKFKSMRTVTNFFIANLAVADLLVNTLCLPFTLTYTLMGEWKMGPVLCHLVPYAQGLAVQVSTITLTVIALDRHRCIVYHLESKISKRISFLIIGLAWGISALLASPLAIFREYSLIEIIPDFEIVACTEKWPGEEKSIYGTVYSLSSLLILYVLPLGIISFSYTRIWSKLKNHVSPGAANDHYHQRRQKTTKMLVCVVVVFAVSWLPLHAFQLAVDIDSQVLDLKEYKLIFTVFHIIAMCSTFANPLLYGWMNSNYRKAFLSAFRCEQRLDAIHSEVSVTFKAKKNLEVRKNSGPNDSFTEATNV
Particulars: at a concentration of 10 μM; cited from earlier work.

The next data set concerns Lung cancer cells, H358. The data set can be described thus: lung cancer xenograft model (Example 9). The data set is classed as in vivo, CB17-SCID mice. On the procedure: Lung cancer cells, H358, (1×10^6) were implanted in CB17-SCID mice. Ten days post-implantation, the mice were treated with MK0557 at 30 mg/kg or vehicle (15% of 0.5%) CMC (carboxymethylcelulose) (low viscosity) and 85% of 0.2% Tween80 in water) intraperitoneally daily for the first week followed by once every two days injections.

Data set [1] has as its system Ovarian cancer cells SKOV-3. Briefly: ovarian cancer xenograft model (Example 13). It counts as in vivo, SCID mice. Particulars: 30 mg/kg i.p. 3/week. The text has this:
Ovarian cancer cells SKOV-3 (5 millions) were implanted s.c. on the right flank of SCID mice (CB17, female, 4-6 weeks) (Charles River, Wilmington, Mass.). The mice were divided into four groups, 5 mice for each group. The treatments were started when the tumor volume reached at around 60 mm3, day 8 after tumor implantation. […] The tumor growth was monitored for the duration of the experiment. […] (FIG. 14)

For data set [2], the system named is Hodgkin Lymphoma cells, HD-MYZ. Briefly: Hodgkin lymphoma xenograft model, MK0557 vs AVASTIN (Example 14). The data set is classed as in vivo, NOD-SCID mice. Particulars: for inhibition rate (tumor volume) / inhibition rate (tumor weight): versus vehicle. The text has this: Hodgkin lymphoma cells, HD-MYZ, were implanted in NOD-SCID mice. […] Tumor volume and tumor growth were monitored during the experiment.

The test system of data set [3] is Breast cancer cells, MDA MB 468. Briefly: breast cancer xenograft model, MK0557 and 5-FU (Example 15). It counts as in vivo, CB17-SCID. As to conditions: MK0557 alone, 30 mg/kg ip. 3/week. On the procedure: Breast cancer cells, MDA MB 468, were injected into CB17-SCID. The treatments were started day 14 after tumor implantation. […] Tumor volume and tumor growth were monitored during the experiment.

In another data set the test system is MCF-7 cells. Briefly: breast cancer xenograft model (Example 4). The data set is classed as in vivo, SCID mice. On the procedure: MCF-7 cells were dissociated from flask surfaces then counted and spun down with a final concentration of 10×10^7 cells/ml produced. A total of 20 SCID mice, aged 6-8 weeks (CRL-CB17), were injected with 10×10^6 cells into lower mammary fat pads. After 3 weeks, all mice were inspected for tumor establishment and were measured for size (FIG. 5).
For this study, a total of 15 mice were selected from a group of 20, which had similar tumor sizes (3×3). Subsequently, these 15 mice were divided into three groups of 5. The first group, the control group, received the vehicle only (20% ETOH and 80% PEG 400); the second group received a dosage of 30 mg/kg of MK0557; and the third group received a dosage of 15 mg/kg of MK0557.
All groups were injected everyday via IP for the first five days, followed by injections every other day.

Data set [4] relates to Hodgkin Lymphoma cells, HD-MYZ. Briefly: Hodgkin lymphoma xenograft model (Example 12). Particulars: 30 mg/kg i.p. 3/week, approximately 2 weeks. The data set is classed as in vivo, NOD-SCID mice. The text has this:
Hodgkin lymphoma cells, HD-MYZ (1 million), were implanted s.c. on the right flank of NOD-SCID mice (Cat#001303, female, 4-6 weeks from Jackson laboratories, Bar Harbor, Me.). The mice were divided into four groups, 5 mice for each group. […] The tumor growth was monitored during the experiment. […] (FIG. 13)

For the next data set, the target named is human NPY4R (Homo sapiens, UniProt P50391). Particulars: at a concentration of 10 μM; cited from earlier work.
Chain of human NPY4R (P50391 whole entry): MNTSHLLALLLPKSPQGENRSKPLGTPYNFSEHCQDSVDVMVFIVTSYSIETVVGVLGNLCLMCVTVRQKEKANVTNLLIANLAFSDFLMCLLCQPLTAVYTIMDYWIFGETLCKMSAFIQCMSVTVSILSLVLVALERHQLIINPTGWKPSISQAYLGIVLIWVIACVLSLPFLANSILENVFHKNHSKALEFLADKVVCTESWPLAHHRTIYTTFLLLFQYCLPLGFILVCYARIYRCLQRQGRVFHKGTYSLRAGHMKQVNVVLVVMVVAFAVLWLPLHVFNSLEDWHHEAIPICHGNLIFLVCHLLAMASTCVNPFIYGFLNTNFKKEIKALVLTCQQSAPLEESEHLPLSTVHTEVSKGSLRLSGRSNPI
The mark [5] stands for this setting: 15 mg/kg i.p. every day×3 weeks.
Setting [6] is: 60 mg/kg p.o. every day×3 weeks.

`O=C1O[C@]2(CC[C@H](C(=O)Nc3ccn(-c4ccccc4F)n3)CC2)c2cnccc21` [MK-0557, trans-N-[1-(2-fluorophenyl)-3-pyrazolyl]-3-oxospiro[6 azaisobenzofuran-1(3H), 1′-cyclohexane]-4′carboxamide]: the “binding to human NPY2R” value at human NPY2R is “does not significantly bind”. Moreover, the “effect on mouse body weights” value in the data set with Lung cancer cells, H358 (30 mg/kg intraperitoneally) was “no obvious effect”. Besides, the tumor growth entry with Lung cancer cells, H358 (30 mg/kg intraperitoneally daily first week then once every two days) was “Tumor growth was inhibited”; in data set [1] it was “inhibited tumor growth”; with MCF-7 cells (MCF-7 xenograft, 30 mg/kg and 15 mg/kg IP), “dose-dependent inhibition of tumor growth”; in data set [4], “inhibited tumor growth”. For the same compound, the “Mean Tumor Volume” value in data set [2] (setting [5]) was 698.76±61.19 mm^3; in data set [2] (setting [6]) it was 671.97±96.89 mm^3; in data set [3] it was 392.73±80.63 mm^3. For the same compound, the “Mean Tumor Weight” value in data set [2] (setting [5]) came to 0.40 ± 0.09 g; in data set [2] (setting [6]), 0.43 ± 0.17 g; in data set [3], 0.1582 ± 0.0345 g. Besides, the “inhibition rate (tumor volume)” value in data set [2] (setting [5]) is reported as 73.13%; in data set [2] (setting [6]) it was 74.16%; in data set [3] (versus vehicle), 38.85%. In addition, the entries for the “inhibition rate (tumor weight)” value in data set [2] (setting [5]), in data set [2] (setting [6]) and in data set [3] (versus vehicle) were 84.19%, 83.0% and 38.59%, respectively. In the data set with MCF-7 cells (30 mg/kg IP, third week), the mice tumor free is reported as 4 out of 5. The “tumor size in treated groups” value in the data set with MCF-7 cells (second week, 30 mg/kg and 15 mg/kg IP) is “tumor shrinkage was noticed”. In addition, the “binding to human NPY4R” value at human NPY4R is listed as “does not significantly bind”.

The record behind these values is patent US8765791B2, “Method of treating cancer using a neuropeptide Y 5R (NP Y5R) antagonist” (University Health Network, priority 2008, dated 2014).
